{"source": "patent US12329852B2", "about": "“Sustained-release 9-cis retinoic acid implantable drug delivery pellets for the prevention of postsurgical edema and lymphedema” (UNIVERSITY OF SOUTHERN CALIFORNIA, priority 2019, dated 2025)", "key": {"diaphragmatic lymphatics": {"tested_on": "diaphragmatic lymphatics", "assay": "India ink staining of the diaphragm", "type": "in vivo, BALB/c mice", "details": "0.08 mg/kg daily i.p.", "protocol": "On post-operative day 47, each animal was intraperitoneally injected with 5 cc of India Ink which was diluted 2-folds with distilled water. Ten minutes after the injection of India ink, the animal was euthanized and the diaphragms were harvested in their entirety. The specimens were then rinsed with running tap water for 1 minute and mounted on the stage of a dissecting microscope equipped with a digital camera. The whole-mount specimen, exclusive of the central tendon, was then analyzed for the passive lymphatic absorption of India ink utilizing the percent stained area on ImageJ."}, "[1]": {"tested_on": "lymphatic vessels of uninjured ears", "assay": "Lymphatic analysis of uninjured ears, LYVE-1 whole mount", "type": "in vivo, BALB/c mice", "details": "0.08 mg/kg daily i.p., any duration", "protocol": "Bilateral ears of animals were harvested simultaneously with the diaphragm, removed of all hair using depilatory cream and fixed in 4% paraformaldehyde. The ears were then split between the inner and outer layers under a dissecting microscope and the cartilage removed prior to immunoflourescence staining. The whole mounted specimens were subsequently stained with anti-LYVE-1 and anti-CD-31 antibodies after washing with PBS, permeabilizing with 0.5% Triton X-100 (Sigma-Aldrich, USA), and incubated with the primary antibody (1:500) overnight. Green secondary antibodies (1:200 donkey anti-rabbit Alexa Fluor 488, Thermo Fisher Scientific, Canoga Park, CA) were used to stain for LYVE-1.\n(§1) Slides were counterstained with hematoxylin and mounted. All images were obtained with a Keyence BZ-X700 microscope (Itasca, IL) and epidermal and dermal thickness was measured using ImageJ (National Institutes of Health, Betheseda, MD). The thickest part of the epidermis and dermis was measured in 5 high-power fields per section, as previously described. On the immunohistochemically stained slides, podoplanin stained vessels in the dermis and subcutis were quantified in ImageJ. Two high-power fields per section were randomly selected and then analyzed by a blinded reviewer. The reviewer scored the number of podoplanin stained vessels and the area (mm^2) of the dermis and subcutaneous tissue in each image. […]"}, "tail lymphedema [2]": {"tested_on": "tail lymphedema", "assay": "Lymphatic vessel density, podoplanin immunohistochemistry of tail", "type": "in vivo, BALB/c mice", "details": "0.08 mg/kg daily i.p.", "protocol": "Tail specimens were collected on post-operative day 47. Specimens were harvested to include 1 cm proximal and 1 cm distal the wound, then divided to separate proximal and distal portions. Tails were inked to enable proper orientation, fixed in 10% neutral buffered formalin overnight, decalcified in 10% EDTA (pH: 7.3) for 6 days at 4° C., embedded in paraffin, sectioned at 3-5 μm, then stained with hematoxylin and eosin (H&E) or via immunohistochemical techniques. In summary, sections were deparaffinized, underwent antigen retrieval with sodium citrate buffer, incubated overnight with the primary antibody (1:200) at 4° C., washed, incubated with a suitable secondary antibody (1:200), then stained with immPACT DAB Substrate (Vector Laboratories, Inc, Burlingame, CA) and counterstained with Delafield Hematoxylin (Sigma-Aldrich, USA) diluted 1:4. Podoplanin (clone 8.1.1; sc-53533, Santa Cruz Biotechnology, Inc., Dallas, TX) was used to immunohistochemically mark lymphatics in paraffin embedded tail sections.\nas §1"}, "tail lymphedema [3]": {"tested_on": "tail lymphedema", "assay": "Oral administration, tail lymphedema, gross tail volume", "type": "in vivo, BALB/c mice", "details": "oral gavage in sunflower oil for 6 weeks", "method": "(§2) Oral administration experiments were performed on 30 adult BALB/c mice, 12 to 14 weeks old, and weighing between 21 and 30 g. Surgical excision of lymphatic vessels at 20-mm from the base of the tail was performed in order to induce secondary lymphedema. Mice receive 9-cis RA dissolved in sunflower oil via oral gavage for 6 weeks in accordance to the dosing regimes in Table 3."}, "[4]": {"details": "mouse, in vivo, po", "method": "as §2"}, "[5]": {"tested_on": "lymphatic endothelial cell", "details": "in vitro; earlier work [12,13]; cited from earlier work"}, "tail lymphedema [6]": {"tested_on": "tail lymphedema", "assay": "Oral administration, tail lymphedema, lymphatic clearance", "type": "in vivo, BALB/c mice", "details": "oral gavage for 6 weeks", "method": "as §2"}, "postsurgical lymphedema": {"tested_on": "postsurgical lymphedema", "details": "daily intraperitoneal injections 0.08 mg/kg; earlier work [13]; cited from earlier work"}, "hind limb lymphedema": {"tested_on": "hind limb lymphedema", "assay": "ICG lymphography of hind limb, lymphatic clearance (implantable pellet)", "type": "in vivo, mouse", "details": "postoperative week 6, 3 to 144 hours after ICG injection", "protocol": "At postoperative week 6, lymphatic clearance was measured using indocyanine green (ICG) lymphography to compare lymphatic function between the treatment and placebo groups. After inducing anesthesia via isoflurane inhalation, a sub-microliter injection system syringe was used to intradermally inject 2 uL of ICG on the dorsal aspect of the second and fifth paw digits. ICG lymphography images were recorded at 1, 3, 6, 12, 24, 48, 72, 96, and 144 hours post-injection. The fluorescence intensity of the lymphography images was quantified at each post-injection time point using ImageJ pixel intensity analysis (National Institutes of Health, Bethesda, MD).\nIndocyanine green (ICG) lymphography is a well-established procedure used in clinics by healthcare providers to visualize lymphatic vessels in real-time for the purposes of diagnosis or preoperative planning. When ICG is injected intradermally, it is preferentially picked up and cleared by the lymphatic system. This imaging modality provides rapid visualization of lymphatic vessels and measures lymphatic clearance, acting as a surrogate for lymphatic function. […] Thus, at postoperative week 6 and prior to euthanasia, lymphatic clearance were monitored by quantifying the change in dermal fluorescence of mouse hind limbs injected with ICG."}, "tail lymphedema [7]": {"tested_on": "tail lymphedema", "assay": "Indocyanine green lymphangiography of tail (intraperitoneal injection)", "type": "in vivo, BALB/c mice", "details": "day 45; for ICG fluorescent intensity compared to control: 48 hours after injection", "protocol": "On Day 45, animals were anesthetized using 2.5% isofluorane, and 5 μL of 2.5 mg/mL indocyanine green (ICG) was injected into the distal end of each animal's tail 15 minutes prior to imaging. The SPY Elite Fluorescence Imaging System (Novadaq Technologies, BC, Canada) was used to capture fluorescent images and heat maps of the tails at 0, 1, 2, 3, 6, 12, 24, and 48 hours following ICG injection. Capture conditions were kept constant throughout the trial. Fluorescent intensity of the tails at each time point was quantified using a previously described method for measuring cell fluorescence in ImageJ [4, 7]. Values were then recorded and plotted using GraphPad Prism 7. Percent change in fluorescent intensity from the peak fluorescent uptake at 6 hours was used to measure ICG clearance."}}, "note": "“Also recorded” adds a separate entry of the source. Like-named read-outs stand apart in the source and are kept apart here.", "data": [{"smiles": "CC1=C(/C=C/C(C)=C\\C=C\\C(C)=C\\C(=O)O)C(C)(C)CCC1", "note": "[9-cis RA, 9-cis retinoic acid]", "values": [{"measurement": "percent stained area of diaphragms (India ink) vs vehicle control", "setting": "diaphragmatic lymphatics; 14-day group", "value": "marginal significance"}, {"measurement": "percent stained area of diaphragms (India ink) vs vehicle control", "setting": "diaphragmatic lymphatics; groups other than 14-day", "value": "essentially no differences"}, {"measurement": "number of branch points, blind-ended sacs, loops, total length, density of lymphatic vessels in uninjured ears vs vehicle control", "setting": "[1]", "value": "no significant difference"}, {"measurement": "lymphatic vessel density compared to control", "setting": "tail lymphedema [2]; 7-day delay group", "value": "strong trend towards improvement but not statistical significance"}, {"measurement": "lymphatic vessel density compared to control", "setting": "tail lymphedema [2]; 14-day group", "value": "trend towards increased lymphatic density that did not reach statistical significance; also recorded: trending towards significance"}, {"measurement": "lymphatic vessel density compared to control", "setting": "tail lymphedema [2]; 42-day/45-day group, tails distal to wound, day 47", "value": "significantly increased compared to the controls; also recorded: statistically significant difference"}, {"measurement": "change in gross tail volume", "setting": "tail lymphedema [3]; high dose 30 mg/kg", "value": "decreases change in gross tail volume"}, {"measurement": "change in gross tail volume", "setting": "tail lymphedema [3]; low dose 10 mg/kg, 10 mg/kg", "value": "decreases change in gross tail volume"}, {"measurement": "change in gross tail volume", "setting": "tail lymphedema [3]; low dose 10 mg/kg, listed as 9-cis retinoic acid, 10 mg/kg", "value": "most effective for preventing post-surgical tail lymphedema"}, {"measurement": "systemic toxicity by liver and kidney function tests (AST, ALT, BUN)", "setting": "[4]; 10 mg/kg", "value": "minimal systemic toxicity"}, {"measurement": "systemic toxicity by liver and kidney function tests (AST, ALT, BUN)", "setting": "[4]; 30 mg/kg", "value": "minimal systemic toxicity"}, {"measurement": "lymphatic endothelial cell proliferation, migration and vessel formation", "setting": "[5]", "value": "significantly increased"}, {"measurement": "lymphatic clearance", "setting": "tail lymphedema [6]; high dose 30 mg/kg", "value": "improves lymphatic clearance"}, {"measurement": "lymphatic clearance", "setting": "tail lymphedema [6]; low dose 10 mg/kg", "value": "improves lymphatic clearance"}, {"measurement": "prevention of postsurgical lymphedema", "setting": "postsurgical lymphedema", "value": "significantly prevents development of lymphedema; also recorded: prevents postsurgical lymphedema"}, {"measurement": "lymphatic drainage as change in ICG fluorescence compared to control", "setting": "hind limb lymphedema", "value": "significantly faster lymphatic drainage"}, {"measurement": "percent change of ICG fluorescent intensity compared to control", "setting": "tail lymphedema [7]; 24 hours after ICG injection, all treatment groups", "value": "significant decrease in the percent change of fluorescent intensity compared to the control"}, {"measurement": "ICG fluorescent intensity compared to control", "setting": "tail lymphedema [7]; 7-day group", "value": "no longer significant from the control"}, {"measurement": "ICG fluorescent intensity compared to control", "setting": "tail lymphedema [7]; 14-day, 42-day and 7-day delayed groups", "value": "significant decrease in fluorescent intensity"}]}]}
